According to patent publication US8926083B2, “Polymerizable ink composition, ink cartridge, and inkjet printer” (Ricoh Company, Ltd., priority 2012, dated 2015):
Read-outs that look alike come from different tables or passages of the source.

Tests used:
[1] = statement of the material safety data sheet; cited from earlier work
[2] = Skin sensitization test according to Local Lymph Node Assay (LLNA) method, Stimulation Index (SI); conditions: LLNA method (OECD test guideline 429), SI less than 3 = no skin sensitization problem
[3] = in vivo

Molecule | SI value [2] | further results
C=CC(=O)OCC(CC)(COC(=O)C=C)COC(=O)C=C [Trimethylol propane triacrylate (M-309), Trimethylol propane triacrylate] |  | skin sensitization as mentioned in MSDS [1]: Toagosei Company, Limited, skin sensitization causing
C=CC(=O)OCC(CC)(COC(=O)C=C)COC(=O)C=C [Trimethylol propane triacrylate (SR-350), Trimethylol propane triacrylate] | 1.9): | 
Polypropylene glycol (n = 9) dimethacrylate |  | SI value [3]: 1.3):
Diacrylate of caprolactone-modified hydroxy pivalic acid neopentyl glyco | manufactured by Nippon Kayaku Co., Ltd., SI Value = 0.9): | 
C=C(C)C(=O)OCCCCOC(=O)C(=C)C [1,4-butane diol dimethacrylate] | 2.6): | 
